Earlier results on 1 compound are cited in patent US6462233B1, “Process for the preparation of sorbic acid” (Daicel Chemical Industries, Ltd., priority 1998, dated 2002).

The conditions of this series: hot water around 100° C.

On to `C/C=C/C=C/C(=O)O` [sorbic acid], for which the “solubility of sorbic acid” value is given as “at most 3%”.
